Assay results from US10456398B2, “Inhibition of SGK1 in the treatment of heart conditions” (Beth Israel Deaconess Medical Center, Inc., priority 2013, dated 2019).

How the values were obtained:
bkd−/− mutant zebrafish = test: rescue of 2:1 AV block phenotype in breakdance (bkd−/−) mutant zebrafish; type: in vivo; design: percent rescue at peak concentration relative to morpholino: dose or concentration left out as unconfirmed
Excerpt: The zebrafish breakdance mutant (Bkd−/−) fish is a unique model of action potential prolongation due to a mutation in the Zerg (zebrafish HERG) channel, that recapitulates human LQT2 syndrome and has been used in high throughput screens to identify molecules that may shorten the action potential duration. The phenotypic manifestation of the prolonged QT interval in the Bkd −/− fish is the presence of functional 2:1 AV block, and previous screens have taken advantage of this easily quantifiable phenotype to screen for ‘rescue’ from 2:1 AV block.
Bkd^−/− (Breakdance) adults were crossed, and the resultant embryos were reared in E3 buffer at 25° C. 24 hours post-fertilization (hpf) animals were dechorionated with pronase and plated per well in 96-well plates in a final volume of 200 μL. At 48 hpf, compounds were added to the appropriate concentration. Zebrafish were visually scored at 72 hpf for presence or absence of 2:1 AV block. For the dose response curve, the fish at 48 hpf were treated for 24 hours at the desired concentration (from 20 mM stock in DMSO) and scored for suppression of breakdance phenotype. Genetic inhibition of SGK1 was achieved either by injection of 500 μM of SGK1 morpholino or SGK1-dominant negative mRNA at the 1-2 cell stage and the fish were scored for rescue of 2:1 AV block at the 99 hpf stage.

SGK1 = target: T1, SGK1 (Homo sapiens, UniProt O00141, S422D); test: cell-based cardiomyocyte assay: SGK1-CA driven phosphorylation of GSK3β in NRVMs (immunoblot); design: species or system rat
T1 construct: expressed in transfected cells; host or cells: neonatal rat ventricular myocytes (NRVMs) infected with adenovirus Ad.SGK1-CA
T1 sequence (O00141 1-431 S422D): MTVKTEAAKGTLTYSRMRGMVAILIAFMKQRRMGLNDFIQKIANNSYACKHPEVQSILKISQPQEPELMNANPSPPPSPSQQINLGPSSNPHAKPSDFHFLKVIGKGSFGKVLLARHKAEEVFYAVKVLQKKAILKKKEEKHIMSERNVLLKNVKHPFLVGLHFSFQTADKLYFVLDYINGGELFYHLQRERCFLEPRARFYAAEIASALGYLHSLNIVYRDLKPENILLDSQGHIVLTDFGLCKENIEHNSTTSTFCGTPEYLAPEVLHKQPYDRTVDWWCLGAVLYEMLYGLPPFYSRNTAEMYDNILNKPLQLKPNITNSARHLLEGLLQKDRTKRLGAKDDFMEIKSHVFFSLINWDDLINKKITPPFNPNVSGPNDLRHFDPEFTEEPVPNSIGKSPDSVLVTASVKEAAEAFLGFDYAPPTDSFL
Method: (§1) These inhibitors were further characterized using a cell-based cardiomyocyte system (FIG. 3). 2×10^6 neonatal rat ventricular myocytes (NRVMs) were plated on 60 mm plates in DMEM containing 10% horse serum, 5% fetal bovine serum, 1% L-glutamine and 1% penstrep antibiotic. 24 h after plating media was changed to DMEM containing 1% L-glutamine, and 24 h following cells were infected with SGK-CA virus and treated with various concentrations of SGK inhibitors 5377051 (Compound 1A) and 6410136 (Chembridge compound catalogue #6410136). 12 h after infection and treatment, the media was changed and cells were treated again. 12 h following the second treatment NRVMs were harvested and lysed in 300 uL of cell lysis buffer (Cell Signaling) containing protease and phosphatase inhibitors and PMSF at 4 degrees C. for 1 h with shaking. Lysates were subjected to immunoblotting with an antibody against phospho […]-glycogen synthase kinase beta (p-GSK3β), a well-established SGK1 substrate. For gel electrophoresis, 50 ug of protein per well was loaded, transferred to nitrocellulose membrane, blocked, and incubated with GAPDH and P-GSK3β primary antibodies. As expected, Ad.

Akt = test: cardiomyocyte assay: Akt (myr-Akt) mediated phosphorylation of GSK3β in NRVMs (immunoblot); type: cell-based, rat; conditions: NRVMs infected with Ad.myr-Akt, FIG. 8B, FIG. 3
Method: as §1, with “As expected, Ad.” left out
Because SGK1 and Akt are structurally related but have very different roles in the heart, with Akt deemed to be cardioprotective against stress, the inhibitors were assessed to determine if they have an off-target effect on Akt in CMs. […]

In the case of `O=C1NC(=S)NC(=O)C1=Cc1ccccc1OCc1ccc(Cl)cc1` [Compound 1A], the “percent rescue of 2:1 AV block phenotype” value (bkd−/− mutant zebrafish; bkd−/− fish, compound at 45 μM) is reported as 58%, the toxicity (bkd−/− mutant zebrafish; bkd−/− fish, concentrations up to 50 μM) is reported as “minimal and stable toxicity” and the “percent rescue at peak concentration relative to morpholino” value (bkd−/− mutant zebrafish; bkd−/− zebrafish, FIG. 2) is reported as “comparable to rescue by morpholino”. The “toxicity in the dosages tested” value (bkd−/− mutant zebrafish; bkd−/− zebrafish, FIG. 2) was “no significant increase in toxicity”, the “effect on Ad.SGK1-CA induced increase in p-GSK3β” value (SGK1; NRVMs infected with SGK1-CA virus, FIG. 8A, FIG. 9) was “inhibited” and the “ability to inhibit SGK1 compared with EMD 638683” value (SGK1; cellular assay, 10 micromolar compounds, FIG. 8C) was “better or at least equivalent”. The “effect on Akt-mediated phosphorylation of GSK-3β (p-GSK3β)” value (Akt) was “neither 5377051 nor 6410136 caused a significant inhibition”.
